Reference: a melting point compilation (Tetko et al.; mined from patent text by program, amines drawn as free bases though some values may be those of a salt)

First: CCCCCCCCCCCCC(Oc1ccc(O)c(C(C)(C)C)c1)C(=O)OCC (stereo not drawn)
Second: CCCCCCCCCCCCCCCCCCCCC1Cc2cc(C(=O)O)ccc2N1 (racemic)
The melting point of the first is lower: 45 to 48 °C for the first, 110 to 115 °C for the second.

Compared with `COCc1ccn2nc(S(=O)(=O)Nc3c(C)cccc3Cl)nc2n1`, `Cc1ccc2c(n1)C(=O)N(c1cccc(S(C)(=O)=O)c1C)C2=O` is higher in melting point: 196 °C for the first, 237 to 239 °C for the second.

First: COc1cc(C)c(C=CC(C)=CC=CC(C)=CCO)c(C)c1C
Second: COc1ccccc1C=CC=CC(=O)c1cc(OC)c(OC)c(OC)c1
The melting point of the first is higher: 128 to 130 °C for the first, 111 °C for the second.

First: N#Cc1c(O)nc2onc(-c3ccccc3)c2c1N
Second: Cc1nc(N2CCNCC2)c2nc(-c3ccccc3)cc-2[nH]1
The melting point of the first is higher: 251 °C for the first, 236 °C for the second.

Compared with `O=C(Cc1ccccc1C1CCCC1)N[C@H]1CCN(CCc2ccccc2)C1`, `O=C1C2CCN(CC2)C1CC(c1ccccc1)c1ccccc1` (stereo not drawn) is lower in melting point: 117 to 119 °C for the first, 107 °C for the second.

First: CC(Cc1ccc(OCc2ccccc2)cc1)C(=O)O (stereo not drawn)
Second: Cc1ccc(C(=O)O)cc1OCc1ccccc1
The melting point of the first is lower: 93 to 95 °C for the first, 159 to 161 °C for the second.

First: CCOC(=O)Nc1ccc2c(c1)C(c1ccccc1Cl)S(=O)(=O)CCC(=O)N2 (stereo not drawn)
Second: O=C(O)c1ccc2c(c1)S(=O)(=O)c1ccccc1S2
The melting point of the first is lower: 295 to 296 °C for the first, 297 to 304 °C for the second.

First: Cc1nc2cc(S(=O)(=O)n3c(CCC(=O)O)cc4cc(C(F)(F)F)ccc43)ccc2s1
Second: O=C(O)CCc1cn(Cc2ccc(C(=O)NCc3ccc(C(F)(F)F)cc3)cc2)nc1-c1ccccc1
The melting point of the first is higher: 235 to 236 °C for the first, 151 to 152 °C for the second.

First: CS(=O)(=O)Cc1cccc(CNC(=O)c2nc3scc(COCc4ccc(C(=O)O)cc4)c3c(=O)[nH]2)c1
Second: Cc1cc(-n2ccc(OCc3ccccc3)cc2=O)sc1C(=O)NCc1ccc(F)cc1
The melting point of the first is higher: 246 to 248 °C for the first, 175 to 177 °C for the second.

First: COC(=O)c1ccc(C)c(-n2c(C)cc(OCc3ccc(F)cc3CNC(=O)Nc3cc(C(C)(C)C)nn3-c3ccc(O)cc3)c(Cl)c2=O)c1
Second: CC(=C1SC(=O)NC1=O)c1ccc(OCCOc2c(-c3ccc(F)cc3)n(C)c3cc(Cl)ccc3c2=O)cc1
The melting point of the first is lower: 188 to 190 °C for the first, 292 to 296 °C for the second.

First: NC1=NC(c2ccc(OC(F)(F)F)cc2)(c2cccc(-c3cccnc3F)c2)C2=NCCN12 (stereo not drawn)
Second: Cn1c(=O)cc(-c2cccc(Cl)c2)c2cc(C(O)(c3ccc(Cl)cc3)c3cnccc3N)ccc21 (stereo not drawn)
The melting point of the first is lower: 95 to 100 °C for the first, 262 °C for the second.

First: N#Cc1nn(-c2c(Cl)cc(C(F)(F)F)cc2Cl)cc1-c1occc1Br
Second: CN1C(C)(C)CC(NC(=O)c2ccc(-c3nc4cc(Cl)c(Cl)cc4[nH]3)cc2)CC1(C)C
The melting point of the first is lower: 99 to 101 °C for the first, greater than 280 °C for the second.

First: COc1ccc(CNc2nc(NCc3ccc(OC)cc3)c3[nH]nc(C(C)C)c3n2)cc1
Second: COC(=O)C(N)Cc1ccc(Oc2ccc(O)cc2)cc1 (stereo not drawn)
The melting point of the first is lower: 60 to 85 °C for the first, 123 to 124 °C for the second.

First: O=S1(=O)NCN(CCF)c2ccc(Br)cc21
Second: COc1ccc2c(c1)c(C(=O)CCC(=O)O)c(C)n2Cc1ccc(Br)cc1
The melting point of the first is lower: 122 to 124 °C for the first, 215 to 217 °C for the second.

Compared with `COc1cc(C=O)cc2c1OCCC2=O`, `COc1ccc2c3c(c(=O)oc2c1)CN(CC(C)=O)CC3` is lower in melting point: 139 °C for the first, 123 to 125 °C for the second.

Compared with `COC(=O)c1cccc(C2=NC(C)(C)Cc3cc(OC)c4c(c32)CC(C)(C)O4)c1`, `COc1cc2c(cc1OC)N(C)C(=O)CN=C2c1cccc(C)c1` is lower in melting point: 137 to 138 °C for the first, 119 to 121 °C for the second.

First: CCOc1csc2c(=O)c(C(N)=O)cn(C)c12
Second: CCOC(=O)C(=O)Nc1ccccn1
The melting point of the first is higher: 286 to 287 °C for the first, 73 to 75 °C for the second.

Compared with `CC(=O)C1=C(O)C(=C(C)Nc2ccc(Cl)cc2)C(=O)OC1=O`, `Cc1ccc([C@H](CC(=O)O)NC(=O)Nc2c(O)ccn(Cc3ccccc3Cl)c2=O)cc1` is lower in melting point: 205 to 206 °C for the first, 113 to 115 °C for the second.

Compared with `Cn1cc(SCc2ccccc2)c(=O)c(-c2ccccc2)c1`, `COC(=O)COc1ccc2cc(-c3ccc(-c4ccccc4)n3Cc3ccccc3)ccc2c1` is lower in melting point: 155 to 157 °C for the first, 101 to 102 °C for the second.

First: CS(=O)(=O)OCCNC(=O)C(O)C(Oc1ccccc1[N+](=O)[O-])c1ccccc1 (stereo not drawn)
Second: CC(C(=O)NCc1cccs1)(c1ccccc1)c1ccccc1
The melting point of the first is higher: 122 to 125 °C for the first, 90 to 91 °C for the second.

First: C=CCOc1ccc(C[C@@H](NC(C)=O)C(=O)O)cc1
Second: C=CCOc1ccc(CCNC(=O)NC)cc1OC
The melting point of the first is lower: 75 °C for the first, 81 to 83 °C for the second.

Compared with `COC(=O)C1=C(C)NC(C)=C(C(=O)OCOC(=O)C(C)C)C1c1cccc(Cl)c1Cl` (stereo not drawn), `CCOC(=O)Nc1nc2ccccc2c2c(CC(C)C)n(C)nc12` is lower in melting point: 145 °C for the first, 120 to 121 °C for the second.

First: CS(=O)(=O)c1ccc(C(Cc2ccc(F)cc2)C(=O)Nc2cncc(Cl)n2)cc1 (stereo not drawn)
Second: COc1ccc2nc(NC(=O)C(CC3CCCC3)c3ccc(S(=O)(=O)Nc4ccccc4)cc3)sc2n1 (stereo not drawn)
The melting point of the first is lower: 192 to 193 °C for the first, 223 to 226 °C for the second.

First: CCCCCCCCCCCCCCS(=O)(=O)N[C@H]1CCCNC(=O)C1
Second: CCCCCCCCCCOC(=O)C1CCC(=O)N1 (stereo not drawn)
The melting point of the first is higher: 100 to 101 °C for the first, 34 to 35 °C for the second.

First: NS(=O)(=O)c1ccc(-c2cnn(Cc3c(F)cc(F)cc3F)c(=O)c2-c2ccc(F)cc2)cc1
Second: O=C(O)Cc1ccc(CNC(=O)C2Cc3ccccc3N2S(=O)(=O)c2ccc(-c3cccc(Cl)c3)cc2)cc1 (stereo not drawn)
The melting point of the first is higher: 201 to 203 °C for the first, 120 °C for the second.

First: COc1ccc(CS(=O)c2cc(OC)c(OC)c(OC)c2)cc1 (stereo not drawn)
Second: CCc1nnc(-c2ccc(OC)cc2)n1-c1ccc(OC)c(OC)c1
The melting point of the first is lower: 103 to 105 °C for the first, 150 °C for the second.

Compared with `Cc1cc(=O)n(-c2cc3c(cc2F)sc(=O)n3CC(N)=O)c(=O)n1C`, `CC(=O)n1c(=O)n(CCN2CCC(C(=O)c3ccc(F)cc3)CC2)c(=O)c2ccsc21` is lower in melting point: greater than 260 °C for the first, 137 to 141 °C for the second.

First: Cc1cc(C)c(NC(=O)N(O)C(C)C)cc1C
Second: CCN(CC)C(=O)n1cc(Cl)c(S(=O)(=O)c2c(C)cc(C)cc2C)n1
The melting point of the first is higher: 176 to 177 °C for the first, 84 to 86 °C for the second.

First: C=C(C)C(=O)OC(C1CCCC1)C(O)(C(F)(F)F)C(F)(F)F (stereo not drawn)
Second: CC(C)(C)OC(=O)Nc1cc(COC2CCCCO2)c(-c2ccc(F)cc2)cc1N (stereo not drawn)
The melting point of the first is lower: 59 °C for the first, 139 to 142 °C for the second.

Compared with `O=[N+]([O-])c1oc2ccc(N3Cc4ccccc4C3)cc2c1-c1ccccc1`, `CC(Nc1nc(-c2ccc([N+](=O)[O-])cc2)nc2[nH]ccc12)c1ccccc1` (stereo not drawn) is higher in melting point: 228 to 230 °C for the first, greater than 250 °C for the second.

First: O=C1NCCC1=Cc1ccccc1OCC(O)CN1CCC(c2ccc3c(c2)CCCC3)CC1 (stereo not drawn)
Second: CN1CCCc2ccc(C(=O)CCC(=O)N3CCC(c4ccc(Cl)cc4)CC3)cc2C1
The melting point of the first is higher: 157 to 159 °C for the first, 133 to 134 °C for the second.

First: CCC(=O)N(C)Cc1cccc2c1C(=O)N(C1CCC(=O)NC1=O)C2=O (stereo not drawn)
Second: COc1cccc(C2(CC(=O)O)CNC(=O)C2)c1 (stereo not drawn)
The melting point of the first is higher: 206 to 208 °C for the first, 144 to 146 °C for the second.

First: COc1cc(/C=C2/C(=O)N(C)C(=O)/C2=C/c2ccccc2)cc(OC)c1OC
Second: COc1cccc2oc(-c3ccccc3Cl)cc(=O)c12
The melting point of the first is lower: 131 to 133 °C for the first, 148 to 149 °C for the second.

First: COc1ccc(OC)c(C=CC#N)c1
Second: COc1cccc(C(=NO)c2ccc(F)cc2F)c1
The melting point of the first is lower: 70 to 71 °C for the first, 122 to 127 °C for the second.

Going from `Clc1cccc(Nc2nc3nonc3nc2Nc2cccc(Cl)c2)c1` to `CC(C)(C)c1cc(C(=NNc2ccccc2)c2cccnc2Cl)cc(C(C)(C)C)c1O`, the melting point falls from 238 °C to 181 °C.

Compared with `Cc1c(C)c2c(c(C)c1NC(=O)CC(C)(C)C)C(c1ccc(C(C)C)c(OCCO)c1)CO2` (stereo not drawn), `CC(C)c1cccc(-c2ccc(F)cc2)c1OCCO` is lower in melting point: 155 to 156 °C for the first, 77 to 78 °C for the second.

Compared with `OCc1ccc(-c2ccccc2-c2nnnn2C(c2ccccc2)(c2ccccc2)c2ccccc2)cc1`, `Cc1cn(Nc2ccncc2)c2ccc(OCc3ccccc3)cc12` is higher in melting point: 167 °C for the first, 168 to 170 °C for the second.

Compared with `COc1cccc2c1OCN(CCc1ccccc1Cl)C2`, `COc1ccccc1N1CCN(CCNc2ccccc2OC(F)(F)F)CC1` is lower in melting point: 79 to 81 °C for the first, 69.5 to 71 °C for the second.

First: CCc1cc(=O)c2nc(OC)ccc2[nH]1
Second: COc1cc(-c2nc3cc(OC)cc(OC)c3c(=O)[nH]2)cc(N2CCN(C(C)C)CC2)c1
The melting point of the first is higher: 279 to 281 °C for the first, 212 to 213 °C for the second.

First: CC(=O)Nn1cnn(C2CCc3ccccc3C2)c1=S (stereo not drawn)
Second: CCOC(=O)c1cnn2c1c(N1CCN(C)CC1)nc1ccccc12
The melting point of the first is lower: 199 to 201 °C for the first, 234 to 236 °C for the second.

Compared with `CCOc1nc2c(cnn2CC)nc1C(=O)Cl`, `CCOC(=O)CSc1nc(Cl)c(C)c(Cl)n1` is lower in melting point: 86 to 87 °C for the first, 66 to 70 °C for the second.

Compared with `O=CC(=Cc1ccccc1)C(C=O)=Cc1ccccc1`, `CCOCCn1c(C)c(C2(c3ccc(N(CC)CC)cc3CC)OC(=O)c3ccccc32)c2ccccc21` (stereo not drawn) is higher in melting point: 109 to 110 °C for the first, 156 to 158 °C for the second.

First: S=c1[nH]c(=S)c2ccccc2[nH]1
Second: NC(=S)Nc1c(Br)cccc1Br
The melting point of the first is higher: 234 to 237 °C for the first, 186 to 189 °C for the second.

First: CC12CCC(C1)C1(C)Oc3ccc(C(=O)c4ccc(C(=O)O)cc4)cc3C21C (stereo not drawn)
Second: CN1CCN(c2cccc3c2CC[C@@H](NC(=O)c2ccc(N4CCOCC4)cc2)C3)CC1
The melting point of the first is higher: 262 to 264 °C for the first, 127 to 128 °C for the second.

First: CCCCC(=O)Nc1ccc(C(F)(F)F)c(-n2nc(CCCC)n(Cc3ccc(-c4ccccc4S(=O)(=O)NC(=O)OC(C)(C)C)cc3F)c2=O)c1
Second: CCOC(=O)c1c(N2CCN(C(=O)c3cccs3)CC2)c2sccc2n(Cc2cccc(F)c2)c1=O
The melting point of the first is higher: 179 to 182 °C for the first, 95 to 113 °C for the second.

First: CCC#CC(C)(C)NC(=O)C(Br)CC (stereo not drawn)
Second: CCC(C)(C)N=C(NC#N)Nc1cc(Br)cc(Br)c1
The melting point of the first is lower: 53 to 55 °C for the first, 168 to 170 °C for the second.

First: O=C(O)c1ccc(Cc2ccc([N+](=O)[O-])cc2)cn1
Second: Cc1cccc(-c2nc(CC(=O)O)sc2-c2ccnc(N)c2)c1
The melting point of the first is higher: 178 to 182 °C for the first, 132 to 133 °C for the second.

Compared with `O=c1cc(Cl)cc(Cl)o1`, `CS(=O)(=O)c1cc(C(=O)N=C(N)N)ccc1C1C=CCC1` (stereo not drawn) is higher in melting point: 43 to 45 °C for the first, 188 to 190 °C for the second.

First: CCC(=CC(CNC(=O)c1ccc(N)nc1)=NO)C(C)[N+](=O)[O-] (stereo not drawn)
Second: CC(CC(=O)Nc1cccc(/C=C/c2nc(C3CCC3)cs2)c1)C(=O)O (stereo not drawn)
The melting point of the first is lower: 157 to 161 °C for the first, 165 to 167 °C for the second.
